For 26 molecules, IC50 results are on record in patent publication US20100120798A1, “SUBSTITUTED PIPERIDINES CONTAINING A HETEROARYLAMIDE OR HETEROARYLPHENYL MOIETY” (ASTEX THERAPEUTICS LIMITED, priority 2006, published 2010).

A short description of the test: In vitro MDA-MB-468 human breast adenocarcinoma GSK-3 phosphorylation assay. It is filed as cell-based. Particulars: mean IC50, MDA-MB-468 cells, 2 hours with compound, phospho-GSK-3β. An excerpt: This assay determines the ability of test compounds to inhibit phosphorylation of Serine-9 residue in Glycogen Synthase Kinase-3beta (GSK-3β) as a surrogate marker of cellular PKB (Akt) activity, as assessed using Acumen Explorer Fluorescent Plate-Reader technology. A MDA-MB-468 human breast adenocarcinoma cell line (LGC Promochem, Teddington, Middlesex, UK, Catalogue No. HTB-132) was routinely maintained in Dulbecco's modified Eagle's growth medium (DMEM; Invitrogen Limited, Paisley, UK Catalogue No. 11966-025) containing 10% heat-inactivated foetal calf serum (FCS; Sigma, Poole, Dorset, UK, Catalogue No. F0392) and 1% L-glutamine (Gibco, Catalogue No. 25030-024) at 37° C. with 5% CO2 up to a confluency of 70-90%.
For the phosphorylation assay, the cells were detached from the culture flask using Trypsin-EDTA (Invitrogen Limited, Catalogue No. 25300-062) and seeded into the wells of a black transparent-bottom Corning Costar Polystyrene 96 well plate (Fisher Scientific UK, Loughborough, Leicestershire, UK; Catalogue No. 3904 and DPS-130-020K) at a density of 5000 cells per well in 100 μl of complete growth media. The cells were incubated overnight at 37° C. with 5% CO2 to allow them to adhere.
On day 2, the cells were treated with test compounds and incubated for 2 hours at 37° C. with 5% CO2. Test compounds were prepared as 10 mM stock solutions in DMSO and dosed directly to required concentration into test wells using non-contact (acoustic dispensing of multiple 2.5 nl droplets directly into assay wells) ECHO dosing technology (Labcyte Inc. Sunnyvale, Calif., USA). Each plate contained control wells without test compound.
20 μl of fixing buffer (Phosphate Buffered Saline (PBS) containing 10% formaldehyde; Sigma; Catalogue No. F1635) was then added to each well to give a final well concentration 1.6%. Plates were then incubated for 30 minutes at room temperature prior to the fixative being removed. Each well was washed once with 250 μl of PBS and then 50 μl PBS added to each well. PBS was then aspirated and cells permeabilised and blocked by incubating each well with 50 μl of permeabilisation/blocking buffer (PBS containing 0.5% Tween 20 (Sigma; Catalogue No. P5927) and 5% Marvel Milk Powder (Andrews Pharmacy Ltd, Macclesfield, Cheshire, UK; Catalogue No. APC100199)) for 1 hour at room temperature prior to staining.
Following removal of Perm/Block buffer, 50 μl of primary anti-phospho-GSK-3β antibody (Cell Signalling Technology (New England Biolabs (Uk) Ltd.), Hitchin, Hertfordshire, UK; Catalogue No. 9336 diluted 1:400 in Blocking buffer (PBS containing 5% Marvel and 0.05% Tween/Polysorbate 20) was added to each well and incubated overnight at 4° C.
Each well was washed three times in 250 μl of wash buffer (PBS containing 0.05% polysorbate 20), and cells incubated for 1 hour at room temperature with 50 μl of secondary fluorescently-labelled anti-rabbit Alexa Fluor 488 antibody (Molecular Probes, Invitrogen Limited, Catalogue No. A11008) diluted 1:750 in blocking buffer. Plates were washed three times in 250 μl of wash buffer and stored containing 50 μl of PBS at 4° C. until required.
Plates were analysed using an Acumen Explorer Plate-reader to quantify level of fluorescent signal that represents quantity of phosphorylated-GSK-3β.
IC50 calculation—IC50 is the concentration of compound required to give 50% effect over the range of activity affected by the compound, between maximum (no compound) and minimum (excess level of compound) response control data. IC50 values were determined by fitting background corrected, dose response assay data to a 4 parameter logistic curve fit equation model with the minimum response set to zero. This was done using an in-house developed algorithm within the Origin graphing software package (OriginLab Corporation, Northampton, Mass., USA). […]

Where a name gives a salt, the structure may show the parent alone. Where only a bound is given, the exact number is not on record here.

For the molecule `Cc1sccc1-c1cccc(C2(CN)CCN(c3ncnc4[nH]cnc34)CC2)c1` [Example 7, C-[4-[3-(2-Methyl-thiophen-3-yl)-phenyl]-1-(9H-purin-6-yl)-piperidin-4-yl]-methylamine], the IC50 was below 8 nM.
Regarding `NCC1(c2cccc(-c3cncc(F)c3)c2)CCN(c2ncnc3[nH]cnc23)CC1` [Example 8, C-[4-[3-(5-Fluoro-pyridin-3-yl)-phenyl]-1-(9H-purin-6-yl)-piperidin-4-yl]-methylamine], the IC50 is below 13 nM.
The same measure for `CNCC1(c2cccc(-c3cnn(C)c3)c2)CCN(c2ncnc3[nH]cnc23)CC1` [Example 9, Methyl-[4-[3-(1-methyl-1H-pyrazol-4-yl)-phenyl]-1-(9H-purin-6-yl)-piperidin-4-ylmethyl]-amine]: 400 nM; for `Cn1cc(-c2cccc(C3(CO)CCN(c4ncnc5[nH]cnc45)CC3)c2)cn1` [Example 10, [4-[3-(1-Methyl-1H-pyrazol-4-yl)-phenyl]-1-(9H-purin-6-yl)-piperidin-4-yl]-methanol]: 5100 nM.
To `NC1(C(=O)NCc2ccc(C(F)(F)F)nc2)CCN(c2ncnc3[nH]ccc23)CC1` [Example 14, 4-amino-1-(7H-pyrrolo[2,3-d]pyrimidin-4-yl)-piperidine-4-carboxylic acid (6-trifluoromethyl-pyridin-3-ylmethyl)-amide hydrochloride] belongs 1400 nM.
To `NCC1(C(=O)NCc2ccc(Br)s2)CCN(c2ncnc3[nH]ccc23)CC1` [Example 21, 4-(aminomethyl)-N-((5-bromothiophen-2-yl)methyl)-1-(7H-pyrrolo[2,3-d]pyrimidin-4-yl)piperidine-4-carboxamide] belongs below 5.9 nM; to `NCC1(C(=O)NCc2ccc(Cl)s2)CCN(c2ncnc3[nH]ccc23)CC1` [Example 22, 4-(Aminomethyl)-N-((5-chlorothiophen-2-yl)methyl)-1-(7H-pyrrolo[2,3-]pyrimidin-4-yl)piperidine-4-carboxamide], 16 nM; to `Cc1ccc(CNC(=O)C2(CN)CCN(c3ncnc4[nH]ccc34)CC2)s1` [Example 23, 4-(Aminomethyl)-N-((5-methylthiophen-2-yl)methyl)-1-(7H-pyrrolo[2,3-d]pyrimidin-4-yl)piperidine-4-carboxamide], 43 nM.
On to `NCC1(C(=O)NCc2cc(Br)no2)CCN(c2ncnc3[nH]ccc23)CC1` [Example 24, 4-(Aminomethyl)-N-((3-bromoisoxazol-5-yl)methyl)-1-(7H-pyrrolo[2,3-d]pyrimidin-4-yl)piperidine-4-carboxamide], for which the IC50 came out at 8.6 nM.
To `NCC1(C(=O)NCc2cc3ccccc3[nH]2)CCN(c2ncnc3[nH]nc(Br)c23)CC1` [Example 25, N-((1H-Indol-2-yl)methyl)-4-(aminomethyl)-1-(3-bromo-1H-pyrazolo[3,4-d]pyrimidin-4-yl)piperidine-4-carboxamide] belongs 10 nM.
The same measure for `NCC1(C(=O)NCc2cc3ccccc3[nH]2)CCN(c2ncnc3[nH]ccc23)CC1` [Example 26, N-((1H-Indol-2-yl)methyl)-4-(aminomethyl)-1-(7H-pyrrolo[2,3-d]pyrimidin-4-yl)piperidine-4-carboxamide]: 23 nM.
The same measure for `NCC1(C(=O)NCc2ccc(C(F)(F)F)nc2)CCN(c2ncnc3[nH]ccc23)CC1` [Example 27, 4-(Aminomethyl)-1-(7H-pyrrolo[2,3-d]pyrimidin-4-yl)-N-((6-(trifluoromethyl)pyridin-3-yl)methyl)piperidine-4-carboxamide]: 110 nM; for `Cn1cc(-c2cccc(C3(CN)CCN(c4ncnc5[nH]cc(Br)c45)CC3)c2)cn1` [Example 28, (1-(5-bromo-7H-pyrrolo[2,3-d]pyrimidin-4-yl)-4-(3-(1-methyl-1H-pyrazol-4-yl)phenyl)piperidin-4-yl)methanamine]: 7.2 nM.
As to `Cn1cc(-c2cccc(C3(CN)CCN(c4ncnc5[nH]cc(Cl)c45)CC3)c2)cn1` [Example 29, (1-(5-Chloro-7H-pyrrolo[2,3-d]pyrimidin-4-yl)-4-(3-(1-methyl-1H-pyrazol-4-yl)phenyl)piperidin-4-yl)methanamine], the IC50 was 11 nM.
Turning to `Cc1c[nH]c2ncnc(N3CCC(CN)(c4cccc(-c5cnn(C)c5)c4)CC3)c12` [Example 30, (4-(3-(1-methyl-1H-pyrazol-4-yl)phenyl)-1-(5-methyl-7H-pyrrolo[2,3-d]pyrimidin-4-yl)piperidin-4-yl)methanamine], the IC50 came to 27 nM.
The same measure for `Cn1cc(-c2cccc(C3(CN)CCN(c4ncnc5[nH]nc(Br)c45)CC3)c2)cn1` [Example 31, (1-(3-Bromo-1H-pyrazolo[3,4-d]pyrimidin-4-yl)-4-(3-(1-methyl-1H-pyrazol-4-yl)phenyl)piperidin-4-yl)methanamine]: 22 nM.
The same measure for `CN(C)CC1(c2cccc(-c3cnn(C)c3)c2)CCN(c2ncnc3[nH]cnc23)CC1` [Example 32, N,N-dimethyl-1-(4-(3-(1-methyl-1H-pyrazol-4-yl)phenyl)-1-(9H-purin-6-yl)piperidin-4-yl)methanamine]: 290 nM; for `Cn1cc(-c2cccc(C3(CN4CCCC4)CCN(c4ncnc5[nH]cnc45)CC3)c2)cn1` [Example 33, 6-(4-(3-(1-methyl-1H-pyrazol-4-yl)phenyl)-4-(pyrrolidin-1-ylmethyl)piperidin-1-yl)-9H-purine]: 740 nM.
The same measure for `Cn1cc(-c2cccc(C3(CCCN)CCN(c4ncnc5[nH]cnc45)CC3)c2)cn1` [Example 34, 3-(4-(3-(1-methyl-1H-pyrazol-4-yl)phenyl)-1-(9H-purin-6-yl)piperidin-4-yl)propan-1-amine]: above 2000 nM; for `Cn1cc(-c2cccc(C3(CNC(=O)CN)CCN(c4ncnc5[nH]cnc45)CC3)c2)cn1` [Example 35, 2-amino-N-((4-(3-(1-methyl-1H-pyrazol-4-yl)phenyl)-1-(9H-purin-6-yl)piperidin-4-yl)methyl)acetamide]: 1300 nM; for `CN(C)CC(=O)NCC1(c2cccc(-c3cnn(C)c3)c2)CCN(c2ncnc3[nH]cnc23)CC1` [Example 36, 2-(dimethylamino)-N-((4-(3-(1-methyl-1H-pyrazol-4-yl)phenyl)-1-(9H-purin-6-yl)piperidin-4-yl)methyl)acetamide]: 2800 nM.
On to `Cn1cc(-c2cccc(C3(C(N)=O)CCN(c4ncnc5[nH]cnc45)CC3)c2)cn1` [Example 37, 4-[3-(1-methylpyrazol-4-yl)phenyl]-1-(9H-purin-6-yl)piperidine-4-carboxamide], for which the IC50 is above 30000 nM.
The same measure for `NC1(C(=O)NCc2ccc(Cl)s2)CCN(c2ncnc3[nH]ccc23)CC1` [Example 39, 4-Amino-N-[(5-chlorothiophen-2-yl)methyl]-1-(7H-pyrrolo[2,3-d]pyrimidin-4-yl)piperidine-4-carboxamide]: 300 nM; for `Cc1csc(CNC(=O)C2(N)CCN(c3ncnc4[nH]ccc34)CC2)n1` [Example 40, 4-Amino-N-[(4-methyl-1,3-thiazol-2-yl)methyl]-1-(7H-pyrrolo[2,3-d]pyrimidin-4-yl)piperidine-4-carboxamide]: 3400 nM.
With `NC1(C(=O)NCc2cnc3ccccc3c2)CCN(c2ncnc3[nH]ccc23)CC1` [Example 41, 4-Amino-1-(7H-pyrrolo[2,3-d]pyrimidin-4-yl)-N-(quinolin-3-ylmethyl)piperidine-4-carboxamide], the IC50 turned out to be 4100 nM.
With `NC1(C(=O)NCc2csc(-c3ccccc3)n2)CCN(c2ncnc3[nH]ccc23)CC1` [Example 42, 4-Amino-N-[(2-phenyl-1,3-thiazol-4-yl)methyl]-1-(7H-pyrrolo[2,3-d]pyrimidin-4-yl)piperidine-4-carboxamide], the IC50 is 7100 nM.

In general, IC50 refers to the concentration needed to halve the response being measured.
